Measured values: the supplement of paper PMC10307832

Assays:
Experiment in all cases: relative viability (nuclei count vs DMSO), 5 days (fraction); higher = more cells survive
BMX-IN-1 + Tozasertib = compound: C=CC(=O)Nc1cc(-n2c(=O)ccc3cnc4ccc(-c5ccc(NS(C)(=O)=O)cc5)cc4c32)ccc1C [BMX-IN-1] + Cc1cc(Nc2cc(N3CCN(C)CC3)nc(Sc3ccc(NC(=O)C4CC4)cc3)n2)n[nH]1 [Tozasertib] (partner 0.1 µM)
Procedure, shortened: (§1)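 Nuclei were stained with Hoechst during a one-step fixation (final 0.05% Triton X-100, 1% formaldehyde, 1 ug/ml Hoechst) carried out 5 days after dosing, then counted on 4× images. The cells, lung cancer lines in 1536-well plates, had been dosed by pin tool the day after seeding with one drug alone or a fixed anchor-drug dose plus five library-drug doses (not always all listed) in √10 steps. Relative viability is the nuclei count in treated wells divided by that in vehicle wells, and each value is the median of duplicate plates.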

PAC-1 + Crizotinib = compound: C=CCc1cccc(/C=N/NC(=O)CN2CCN(Cc3ccccc3)CC2)c1O [PAC-1] + C[C@@H](Oc1cc(-c2cnn(C3CCNCC3)c2)cnc1N)c1c(Cl)ccc(F)c1Cl [Crizotinib] (partner 1 µM)
Procedure, shortened: as §1

PAC-1 + Lapatinib = compound: C=CCc1cccc(/C=N/NC(=O)CN2CCN(Cc3ccccc3)CC2)c1O [PAC-1] + CS(=O)(=O)CCNCc1ccc(-c2ccc3ncnc(Nc4ccc(OCc5cccc(F)c5)c(Cl)c4)c3c2)o1 [Lapatinib] (partner 2 µM)
Procedure, shortened: as §1

Ibrutinib + Dasatinib = compound: C=CC(=O)N1CCC[C@@H](n2nc(-c3ccc(Oc4ccccc4)cc3)c3c(N)ncnc32)C1 [Ibrutinib] + Cc1nc(Nc2ncc(C(=O)Nc3c(C)cccc3Cl)s2)cc(N2CCN(CCO)CC2)n1 [Dasatinib] (partner 0.075 µM)
Procedure, shortened: as §1

Cell Line	relative viability (BMX-IN-1 + Tozasertib; first compound 0.02 µM)	relative viability (BMX-IN-1 + Tozasertib; first compound 0.2 µM)	relative viability (BMX-IN-1 + Tozasertib; first compound 0.6325 µM)	relative viability (BMX-IN-1 + Tozasertib; first compound 2 µM)	relative viability (PAC-1 + Crizotinib; first compound 0.02 µM)	relative viability (PAC-1 + Crizotinib; first compound 0.06325 µM)	relative viability (PAC-1 + Crizotinib; first compound 0.2 µM)	relative viability (PAC-1 + Crizotinib; first compound 2 µM)	relative viability (PAC-1 + Lapatinib; first compound 0.02 µM)	relative viability (PAC-1 + Lapatinib; first compound 0.06325 µM)	relative viability (PAC-1 + Lapatinib; first compound 0.2 µM)	relative viability (PAC-1 + Lapatinib; first compound 2 µM)	relative viability (Ibrutinib + Dasatinib; first compound 0.005 µM)	relative viability (Ibrutinib + Dasatinib; first compound 0.01581 µM)	relative viability (Ibrutinib + Dasatinib; first compound 0.05 µM)	relative viability (Ibrutinib + Dasatinib; first compound 0.1581 µM)	relative viability (Ibrutinib + Dasatinib; first compound 0.5 µM)
HCC-44	1.27	0.92	0.861	0.725	0.809	0.797	0.807	0.772	1.06	1.04	0.962	1.03					
HCC-78	0.472	0.474	0.52	0.36	0.343	0.34	0.362	0.337	0.753	0.822	0.657	1.05	0.309	0.402	0.304	0.312	0.267
HCC-366	0.0929	0.0929	0.112	0.1	0.542	0.479	0.454	0.591	1.07	1.03	1.06	0.976	0.734	0.569	0.633	0.538	0.597
HCC-827	0.524	0.434	0.415	0.442	0.982	0.943	0.875	0.889	0.193	0.194	0.186	0.198	0.358	0.277	0.206	0.262	0.143
HOP-62	0.431	0.413	0.388	0.373	0.844	1.01	1.02	0.954	0.876	0.987	1.03	1.22	0.664	0.517	0.708	0.563	0.648
IA-LM					0.862	0.865	0.75	0.751	0.937	0.922	0.715	1.08					
LC-2-ad	0.408	0.501	0.394	0.214	0.383	0.436	0.443	0.398	0.983	0.957	0.984	0.865	0.315	0.608	0.637	0.49	0.565
LCLC-97TM1	0.203	0.274	0.289	0.203		0.252	0.358	0.298		0.796	0.796	0.954	0.951	0.804	0.973	0.703	0.782
LCLC-103H	0.605	0.494	0.559	0.485	1.07	1.15	0.974	1.02					0.496	0.432	0.454	0.489	0.318
